# From ChEMBL document CHEMBL1124186, “Synthesis and evaluation of tylosin-related macrolides modified at the aldehyde function: a new series of orally effective antibiotics” (1988)
# Assays:
# Streptococcus pneumoniae = assay: In vitro antimicrobial activity against Streptococcus pneumoniae; type: functional
# Streptococcus pyogenes [1] = assay: In vivo effective dose against experimental infections in rodent caused by Streptococcus pyogenes C203 when administered sc; type: functional
# Enterococcus faecium = assay: In vitro antimicrobial activity against Streptococcus faecium X66; type: functional, streptococcus fae-cium
# Streptococcus pyogenes [2] = assay: In vivo effective dose against experimental infections in rodent caused by Streptococcus pyogenes C203 when administered orally; type: functional; details: po
# Staphylococcus aureus = assay: In vitro antimicrobial activity against Staphylococcus aureus X1; type: functional
# Streptococcus pyogenes [3] = assay: In vitro antimicrobial activity against Streptococcus pyogenes C203; type: functional
# [4] = tested on: Staphylococcus epidermidis; assay: In vitro antimicrobial activity against Staphylococcus epidermidis EPI1; type: functional
# Haemophilus influenzae = assay: In vitro antimicrobial activity against Haemophilus influenzae.; type: functional
Compound,MIC (Streptococcus pneumoniae),MIC (Enterococcus faecium),MIC (Staphylococcus aureus),MIC (Streptococcus pyogenes [3]),MIC [4],MIC (Haemophilus influenzae),ED50 (Streptococcus pyogenes [1]),ED50 (Streptococcus pyogenes [2])
CC[C@H]1OC(=O)C[C@@H](O)[C@H](C)[C@@H](O[C@@H]2O[C@H](C)[C@@H](O)[C@H](N(C)C)[C@H]2O)[C@@H](CCOc2ccc(CO)cc2)C[C@@H](C)C(=O)/C=C/C(C)=C/[C@@H]1CO[C@@H]1O[C@H](C)[C@@H](O)[C@@H](OC)[C@H]1OC,2 µg/mL,16 µg/mL,0.5 µg/mL,0.5 µg/mL,0.5 µg/mL,64 µg/mL,5 mg/kg,44 mg/kg
CC[C@H]1OC(=O)C[C@@H](O)[C@H](C)[C@@H](O[C@@H]2O[C@H](C)[C@@H](O)[C@H](N(C)C)[C@H]2O)[C@@H](CCO)C[C@@H](C)C(=O)/C=C/C(C)=C/[C@@H]1CO[C@@H]1O[C@H](C)[C@@H](O)[C@@H](OC)[C@H]1OC,4 µg/mL,32 µg/mL,2 µg/mL,4 µg/mL,2 µg/mL,32 µg/mL,2.1 mg/kg,> 100 mg/kg
CC[C@H]1OC(=O)C[C@@H](O)[C@H](C)[C@@H](O[C@@H]2O[C@H](C)[C@@H](O)[C@H](N(C)C)[C@H]2O)[C@@H](CCI)C[C@@H](C)C(=O)/C=C/C(C)=C/[C@@H]1CO[C@@H]1O[C@H](C)[C@@H](O)[C@@H](OC)[C@H]1OC,4 µg/mL,16 µg/mL,0.5 µg/mL,0.5 µg/mL,0.25 µg/mL,32 µg/mL,4.3 mg/kg,19 mg/kg
CC[C@H]1OC(=O)C[C@@H](O)[C@H](C)[C@@H](O[C@@H]2O[C@H](C)[C@@H](O)[C@H](N(C)C)[C@H]2O)[C@@H](CCSc2nnnn2C)C[C@@H](C)C(=O)/C=C/C(C)=C/[C@@H]1CO[C@@H]1O[C@H](C)[C@@H](O)[C@@H](OC)[C@H]1OC,2 µg/mL,16 µg/mL,0.5 µg/mL,0.25 µg/mL,0.25 µg/mL,–,–,50 mg/kg
CCOC(=O)NN(CC[C@H]1C[C@@H](C)C(=O)/C=C/C(C)=C/[C@H](CO[C@@H]2O[C@H](C)[C@@H](O)[C@@H](OC)[C@H]2OC)[C@@H](CC)OC(=O)C[C@@H](O)[C@H](C)[C@H]1O[C@@H]1O[C@H](C)[C@@H](O)[C@H](N(C)C)[C@H]1O)C(=O)OCC,1 µg/mL,16 µg/mL,0.5 µg/mL,1 µg/mL,0.5 µg/mL,32 µg/mL,2.1 mg/kg,> 5 mg/kg
CC[C@H]1OC(=O)C[C@@H](O)[C@H](C)[C@@H](O[C@@H]2O[C@H](C)[C@@H](O[C@H]3C[C@@](C)(O)[C@@H](O)[C@H](C)O3)[C@H](N(C)C)[C@H]2O)[C@@H](CCNCCc2ccccc2)C[C@@H](C)C(=O)/C=C/C(C)=C/[C@@H]1CO[C@@H]1O[C@H](C)[C@@H](O)[C@@H](OC)[C@H]1OC,8 µg/mL,128 µg/mL,1 µg/mL,1 µg/mL,2 µg/mL,64 µg/mL,9.1 mg/kg,76 mg/kg
CC[C@H]1OC(=O)C[C@@H](O)[C@H](C)[C@@H](O[C@@H]2O[C@H](C)[C@@H](O)[C@H](N(C)C)[C@H]2O)[C@@H](CCO)C[C@@H](C)C(=O)/C=C/C(C)=C/[C@@H]1CO[C@@H]1O[C@H](C)[C@@H](O)[C@@H](O)[C@H]1OC,2 µg/mL,64 µg/mL,8 µg/mL,2 µg/mL,4 µg/mL,32 µg/mL,8.9 mg/kg,> 100 mg/kg
CC[C@H]1OC(=O)C[C@@H](O)[C@H](C)[C@@H](O[C@@H]2O[C@H](C)[C@@H](O[C@H]3C[C@@](C)(O)[C@@H](O)[C@H](C)O3)[C@H](N(C)C)[C@H]2O)[C@@H](CCN2CCCCCCC2)C[C@@H](C)C(=O)/C=C/C(C)=C/[C@@H]1CO[C@@H]1O[C@H](C)[C@@H](O)[C@@H](OC)[C@H]1OC,8 µg/mL,> 128 µg/mL,4 µg/mL,2 µg/mL,4 µg/mL,128 µg/mL,> 10 mg/kg,44 mg/kg
CC[C@H]1OC(=O)C[C@@H](O)[C@H](C)[C@@H](O[C@@H]2O[C@H](C)[C@@H](O)[C@H](N(C)C)[C@H]2O)[C@@H](CCN2CCCCCCC2)C[C@@H](C)C(=O)/C=C/C(C)=C/[C@@H]1CO[C@@H]1O[C@H](C)[C@@H](O)[C@@H](O)[C@H]1OC,0.5 µg/mL,16 µg/mL,1 µg/mL,0.5 µg/mL,1 µg/mL,32 µg/mL,1.8 mg/kg,100 mg/kg
CC[C@H]1OC(=O)C[C@@H](O)[C@H](C)[C@@H](O[C@@H]2O[C@H](C)[C@@H](O[C@H]3C[C@@](C)(O)[C@@H](O)[C@H](C)O3)[C@H](N(C)C)[C@H]2O)[C@@H](CCOc2ccccc2)C[C@@H](C)C(=O)/C=C/C(C)=C/[C@@H]1CO[C@@H]1O[C@H](C)[C@@H](O)[C@@H](O)[C@H]1OC,32 µg/mL,> 128 µg/mL,2 µg/mL,4 µg/mL,2 µg/mL,> 128 µg/mL,> 10 mg/kg,91 mg/kg
CC[C@H]1OC(=O)C[C@@H](O)[C@H](C)[C@@H](O[C@@H]2O[C@H](C)[C@@H](O)[C@H](N(C)C)[C@H]2O)[C@@H](CCOc2cccnc2)C[C@@H](C)C(=O)/C=C/C(C)=C/[C@@H]1CO[C@@H]1O[C@H](C)[C@@H](O)[C@@H](OC)[C@H]1OC,2 µg/mL,16 µg/mL,0.5 µg/mL,2 µg/mL,0.5 µg/mL,16 µg/mL,3.9 mg/kg,50 mg/kg

# Stronger by MIC (Enterococcus faecium), values ahead:
MIC (Streptococcus pneumoniae),MIC (Enterococcus faecium),MIC (Staphylococcus aureus),MIC (Streptococcus pyogenes [3]),MIC [4],MIC (Haemophilus influenzae),Compound,ED50 (Streptococcus pyogenes [1]),ED50 (Streptococcus pyogenes [2])
4 µg/mL,8 µg/mL,0.5 µg/mL,0.5 µg/mL,1 µg/mL,16 µg/mL,CCOC(C[C@H]1C[C@@H](C)C(=O)/C=C/C(C)=C/[C@H](CO[C@@H]2O[C@H](C)[C@@H](O)[C@@H](OC)[C@H]2OC)[C@@H](CC)OC(=O)C[C@@H](O)[C@H](C)[C@H]1O[C@@H]1O[C@H](C)[C@@H](O)[C@H](N(C)C)[C@H]1O)OCC,3.4 mg/kg,35 mg/kg
1 µg/mL,8 µg/mL,0.5 µg/mL,0.25 µg/mL,0.5 µg/mL,8 µg/mL,CC[C@H]1OC(=O)C[C@@H](O)[C@H](C)[C@@H](O[C@@H]2O[C@H](C)[C@@H](O)[C@H](N(C)C)[C@H]2O)[C@@H](CCNCCc2ccccc2)C[C@@H](C)C(=O)/C=C/C(C)=C/[C@@H]1CO[C@@H]1O[C@H](C)[C@@H](O)[C@@H](OC)[C@H]1OC,> 1.6 mg/kg,55 mg/kg
2 µg/mL,8 µg/mL,0.25 µg/mL,0.12 µg/mL,0.25 µg/mL,16 µg/mL,CC[C@H]1OC(=O)C[C@@H](O)[C@H](C)[C@@H](O[C@@H]2O[C@H](C)[C@@H](O)[C@H](N(C)C)[C@H]2O)[C@@H](CCBr)C[C@@H](C)C(=O)/C=C/C(C)=C/[C@@H]1CO[C@@H]1O[C@H](C)[C@@H](O)[C@@H](OC)[C@H]1OC,4.5 mg/kg,19 mg/kg
1 µg/mL,8 µg/mL,0.5 µg/mL,1 µg/mL,0.5 µg/mL,32 µg/mL,CC[C@H]1OC(=O)C[C@@H](O)[C@H](C)[C@@H](O[C@@H]2O[C@H](C)[C@@H](O)[C@H](N(C)C)[C@H]2O)[C@@H](CCOS(=O)(=O)c2ccc(C)cc2)C[C@@H](C)C(=O)/C=C/C(C)=C/[C@@H]1CO[C@@H]1O[C@H](C)[C@@H](O)[C@@H](OC)[C@H]1OC,3.1 mg/kg,5 mg/kg
1 µg/mL,4 µg/mL,0.25 µg/mL,0.12 µg/mL,0.25 µg/mL,32 µg/mL,CC[C@H]1OC(=O)C[C@@H](O)[C@H](C)[C@@H](O[C@@H]2O[C@H](C)[C@@H](O)[C@H](N(C)C)[C@H]2O)[C@@H](CCOc2cc(Cl)cc(Cl)c2)C[C@@H](C)C(=O)/C=C/C(C)=C/[C@@H]1CO[C@@H]1O[C@H](C)[C@@H](O)[C@@H](OC)[C@H]1OC,> 10 mg/kg,31 mg/kg
1 µg/mL,4 µg/mL,0.5 µg/mL,1 µg/mL,0.5 µg/mL,16 µg/mL,CC[C@H]1OC(=O)C[C@@H](O)[C@H](C)[C@@H](O[C@@H]2O[C@H](C)[C@@H](O)[C@H](N(C)C)[C@H]2O)[C@@H](CCOc2ccc([N+](=O)[O-])cc2)C[C@@H](C)C(=O)/C=C/C(C)=C/[C@@H]1CO[C@@H]1O[C@H](C)[C@@H](O)[C@@H](OC)[C@H]1OC,–,5 mg/kg
1 µg/mL,4 µg/mL,0.25 µg/mL,0.25 µg/mL,0.25 µg/mL,32 µg/mL,CC[C@H]1OC(=O)C[C@@H](O)[C@H](C)[C@@H](O[C@@H]2O[C@H](C)[C@@H](O)[C@H](N(C)C)[C@H]2O)[C@@H](CCOc2ccccc2)C[C@@H](C)C(=O)/C=C/C(C)=C/[C@@H]1CO[C@@H]1O[C@H](C)[C@@H](O)[C@@H](O)[C@H]1OC,3.2 mg/kg,50 mg/kg
–,4 µg/mL,0.25 µg/mL,0.25 µg/mL,0.25 µg/mL,8 µg/mL,CC[C@H]1OC(=O)C[C@@H](O)[C@H](C)[C@@H](O[C@@H]2O[C@H](C)[C@@H](O)[C@H](N(C)C)[C@H]2O)[C@@H](CCOS(=O)c2ccccc2)C[C@@H](C)C(=O)/C=C/C(C)=C/[C@@H]1CO[C@@H]1O[C@H](C)[C@@H](O)[C@@H](OC)[C@H]1OC (some centres undefined),5 mg/kg,45 mg/kg
0.5 µg/mL,4 µg/mL,0.25 µg/mL,0.5 µg/mL,0.25 µg/mL,16 µg/mL,CC[C@H]1OC(=O)C[C@@H](O)[C@H](C)[C@@H](O[C@@H]2O[C@H](C)[C@@H](O)[C@H](N(C)C)[C@H]2O)[C@@H](CCOc2ncnc3ccccc23)C[C@@H](C)C(=O)/C=C/C(C)=C/[C@@H]1CO[C@@H]1O[C@H](C)[C@@H](O)[C@@H](OC)[C@H]1OC,5.4 mg/kg,> 50 mg/kg
0.5 µg/mL,2 µg/mL,1 µg/mL,1 µg/mL,0.5 µg/mL,16 µg/mL,CC[C@H]1OC(=O)C[C@@H](O)[C@H](C)[C@@H](O[C@@H]2O[C@H](C)[C@@H](O)[C@H](N(C)C)[C@H]2O)[C@@H](CCOc2ccc(OC(C)=O)cc2)C[C@@H](C)C(=O)/C=C/C(C)=C/[C@@H]1CO,> 30 mg/kg,> 100 mg/kg
